Results on three compounds are retold here after patent publication US9676859B2, “In vitro generation of dendritic cells by exposure to an anti-CSF1-R antibody” (TRANSGENE SA, priority 2012, dated 2017).

The subject of series [1] is differentiating macrophages. In words: Human macrophage differentiation assay: microscopical observation and cell counts of day-6 cultures (cytotoxicity). The format is cell-based. As to conditions: for Microscopical observation of day-6 cultures (cytotoxicity), compared with untreated cells: all doses evaluated (mAbs 0.1, 1, 10 μg/ml, F(ab′)2 0.066, 0.66, 6.6 μg/ml), all donors. From the text:
Cells were counted following a 6-day culture of monocyte, or precursors thereof, s with GM-CSF and CSF-1, in the presence or absence of anti-CD115 mAbs or F(ab′)2 or with GW2580. Controls included cultures treated with rituximab or rituximab F(ab′)2, or without any added compound.
Buffy coats were provided by the Etablissement Français du Sang (EFS, Strasbourg). Peripheral blood mononucleated cells (PBMC) were obtained by centrifugation on a ficoll gradient. Monocytes were purified by immunomagnetic cell sorting, using CD14-antibody-coated beads (Miltenyii). […] Monocytes were differentiated for 6 days in 48-well plates (3×10^5 cells/well) in RPMI-Glutamax™ medium supplemented with 10% heat inactivated fetal calf serum and 1% tri-antibiotic mixture (penicillin, streptomycin, neomycin). GM-CSF (10 ng/ml) was added in the cell culture medium from day 0 to day 3. H27K15, other antibodies or internal control GW2580 (LC Labs) were added at day 0. On day 3 post-isolation, monocytes were washed with PBS and further cultivated in medium supplemented with CSF-1 (10 ng/ml) and GM-CSF (2 ng/ml), in the presence or absence of antibodies or GW2580. On day 6, supernatants were collected and stored at −20° C. Cells were detached from the plastic and pools of triplicates were analyzed by IC/FC (immunocytochemistry/flow cytometry) for cell sizes and expression of FcγR and CD86. Cytokines and chemokines were quantified in the culture supernatants by multiplex (Bioplex, Bio-Rad) or by ELISA.
Three different doses of mab H27K15 or isotype control rituximab (0.1; 1 or 10 μg/ml) were added to the culture medium at the beginning of the culture and again 3 days later. F(ab′)2 generated from H27K15 or from rituximab were tested in parallel at equivalent molar concentrations.
Cell viability was analyzed at day 6 by counting 5 microscope fields in each well of the plate (one in the center of the well and four fields at mid-distance between the center and the side of the well).

The subject of series [2] is CD64 (FcγRI). In words: Surface expression of CD64 on day-6 macrophages by IC/FC. The format is cell-based, human. As to conditions: GW2580 1 μM vs no treatment. The procedure: Macrophages obtained following a 6-day culture of monocyte, or precursors thereof from 3 different blood donors with GM-CSF and CSF-1 were analyzed by IC/FC for surface expression of CD64. Upper panels: CD64 staining in cultures from donor 1 treated with monoclonal antibody H27K15 (left, bold line) or with GW2580 (right, bold line) or their respective negative controls rituximab (left, thin line) or no treatment (right, thin line). Lower panel: Medians of fluorescence intensities in macrophage cultures treated with test compounds at 10, 1 or 0.1 μg/ml* were compared with those in the corresponding negative controls: H27K15 vs rituximab, H27K15-derived F(ab′)2 vs rituximab-derived F(ab′)2, mAbs 2-4A5 or 9-4D2 vs rat IgG1, GW2580 vs no treatment. Percentages of reduction in CD64 expression were calculated as: 100−[100×Median fluorescence intensity with test compound/Median fluorescence intensity with control]. […]
Buffy coats were provided by the Etablissement Français du Sang (EFS, Strasbourg). […] Cells were detached from the plastic and pools of triplicates were analyzed by IC/FC (immunocytochemistry/flow cytometry) for cell sizes and expression of FcγR and CD86. Cytokines and chemokines were quantified in the culture supernatants by multiplex (Bioplex, Bio-Rad) or by ELISA. […]

For series [3], the system named is CD86. In words: Induction of CD86bright SSClow macrophage population by IC/FC. The format is cell-based, human. As to conditions: day-6 macrophages; mAb 10, 1, 0.1 μg/ml, F(ab′)2 equimolar, GW2580 1 μM. As for the experimental part: Upper panels: Dot plots showing CD86 staining (x-axis) and side scatter (SSC, y-axis) of macrophages from donor 3 differentiated for 6 days in the presence of H27K15 (left) or negative control rituximab (right). A gate was set on the CD86^bright SSC^low cell population induced by H27K15. Lower panel: Percentages of CD86^bright SSC^low cells with the test compounds at 10, 1 or 0.1 μg/ml* were compared with those in the corresponding negative controls: H27K15 vs rituximab, H27K15-derived F(ab′)2 vs rituximab-derived F(ab′)2, GW2580 vs no treatment. Percentages of increase in the CD86^bright SSC^low cell population were calculated as: 100×percentage of CD86^bright SSC^low cells with test compound/percentage of CD86^bright SSC^low cells with control. Shown are the mean percentages of increase in the CD86^bright SSC^low cell population from the 3 blood donors. *except for F(ab′)2: 6.6; 0.6; and 0.06 μg/ml.
(§1) Buffy coats were provided by the Etablissement Français du Sang (EFS, Strasbourg). Peripheral blood mononucleated cells (PBMC) were obtained by centrifugation on a ficoll gradient. […] Cells were detached from the plastic and pools of triplicates were analyzed by IC/FC (immunocytochemistry/flow cytometry) for cell sizes and expression of FcγR and CD86. Cytokines and chemokines were quantified in the culture supernatants by multiplex (Bioplex, Bio-Rad) or by ELISA. […]

For series [4], the system named is IL-12p70. In words: IL-12p70 titration in day-6 macrophage culture supernatants. Format: cell-based, human. As to conditions: day-6 supernatants, 3 blood donors, GW2580 1 μM; for IL-12p70 secretion: mAbs 1 μg/ml, detection limit 11 pg/ml. As for the experimental part:
(§2) IL-12p70 and IL-10 were titrated in the culture supernatants from day-6 macrophages differentiated in the presence of mAb H27K15 (1 μg/ml), GW2580 (1 μM) or their respective negative controls rituximab or no treatment. Left panel: IL-12p70 and IL-10 levels […] in macrophage cultures from 3 blood donors. Right: IL-12p70 […]/IL-10 […] ratios were calculated for each blood donor and each culture condition. In samples where IL-12p70 was undetectable (below the detection limit of 11 pg/m)l, its level was arbitrarily set at 1 pg/ml for the calculation of IL-12p70/IL-10 ratios.
(§3) Buffy coats were provided by the Etablissement Français du Sang (EFS, Strasbourg). Peripheral blood mononucleated cells (PBMC) were obtained by centrifugation on a ficoll gradient. Monocytes were purified by immunomagnetic cell sorting, using CD14-antibody-coated beads (Miltenyii). Enriched monocyte suspensions were more than 95% pure. Monocytes were differentiated for 6 days in 48-well plates (3×10^5 cells/well) in RPMI-Glutamax™ medium supplemented with 10% heat inactivated fetal calf serum and 1% tri-antibiotic mixture (penicillin, streptomycin, neomycin). GM-CSF (10 ng/ml) was added in the cell culture medium from day 0 to day 3. H27K15, other antibodies or internal control GW2580 (LC Labs) were added at day 0. On day 3 post-isolation, monocytes were washed with PBS and further cultivated in medium supplemented with CSF-1 (10 ng/ml) and GM-CSF (2 ng/ml), in the presence or absence of antibodies or GW2580. On day 6, supernatants were collected and stored at −20° C. Cells were detached from the plastic and pools of triplicates were analyzed by IC/FC (immunocytochemistry/flow cytometry) for cell sizes and expression of FcγR and CD86. Cytokines and chemokines were quantified in the culture supernatants by multiplex (Bioplex, Bio-Rad) or by ELISA.
IL-12p70 and IL-10 were titrated in day-6 culture supernatants.

For series [5], the system named is IL-10. As to the kind of experiment: IL-10 titration in day-6 macrophage culture supernatants. The format is cell-based, human. As to conditions: day-6 supernatants; GW2580 1 μM. As for the experimental part:
as §2
as §1, with “gradient. Monocytes were purified by immunomagnetic cell sorting, using CD14-antibody-coated beads (Miltenyii). Enriched monocyte suspensions were more than 95% pure.” for “gradient.”

Series [6] concerns MCP-1/CCL2. As to the kind of experiment: MCP-1/CCL2 titration in day-6 macrophage culture supernatants. As to conditions: day-6 supernatants; H27K15 1 μg/ml, GW2580 1 μM. The format is cell-based, human. The procedure:
MCP-1 and IL-6 were titrated in the culture supernatants from day-6 macrophages differentiated in the presence of mAb H27K15 (1 μg/ml), GW2580 (1 μM) or their respective negative controls rituximab or no treatment. Percentages of reduction in MCP-1 (upper panel) or in IL-6 production (lower panel) were calculated for the 3 blood donors as: 100−[100×cytokine concentration with test compound (pg/ml)/cytokine concentration with control (pg/ml)].
as §3, with “H27K15, other antibodies or internal control GW2580 (LC Labs) were added at day 0. On day 3 post-isolation, monocytes were washed with PBS and further cultivated in medium supplemented with CSF-1 (10 ng/ml) and GM-CSF (2 ng/ml), in the presence or absence of antibodies or GW2580. On day 6, supernatants were collected and stored at −20° C.” left out, “ELISA. […]” for “ELISA.”

The subject of series [7] is MMP-9. As to the kind of experiment: MMP-9 ELISA in day-6 supernatants of monocytes cultured with GM-CSF and CSF-1. Format: cell-based, human. As to conditions: mAb 0.1, 1, 10 μg/ml, F(ab)′2 equimolar, effect in 2 out of 3 donors. As for the experimental part:
Monocytes isolated from 3 different blood donors were differentiated for 6 days in the presence of GM-CSF and CSF-1, with or without mAb H27K15, Rituximab or GW2580. MAb H27K15 or Rituximab (0.1, 1 or 10 μg/ml) or equimolar concentrations of F(ab)′2 derived from both mAbs were added to the cultures. MMP-9 was titrated by ELISA (R&D Systems) in day-6 culture supernatants.
CD14^+ monocytes from 3 different donors were allowed to differentiate in the presence of both GM-CSF and CSF-1, known to induce macrophage differentiation towards respectively the M1- and M2-types. MAb H27K15 or Rituximab (used as a negative control) were added to the cultures at 0.1, 1 or 10 μg/ml. Equimolar concentrations of F(ab)′2 derived from both mAbs were assayed in parallel. The tyrosine kinase inhibitor GW2580, previously shown to inhibit the CSF-1-dependent proliferation of human monocytes and the differentiation of murine macrophages in vitro was tested in the same assay. After 6 days of culture, MMP-9 concentrations were measured in the supernatants by ELISA (FIG. 6). […] Thus, mAb H27K15 is capable of decreasing MMP-9 secretion by differentiating M2 macrophages.
(ELISA stands for enzyme-linked immunosorbent assay.)

In series [8] the test system is CD163+ M2-type macrophages. As to the kind of experiment: Flow cytometry of CD163-positive M2-type macrophages in day-6 cultures. The format is cell-based, human. As to conditions: day-6 cultures with GM-CSF and CSF-1; 3 donors. As for the experimental part: Cells obtained after 6-day culture with GM-CSF and CSF-1 were harvested and incubated for 20 min at 4° C. with PBS containing human IgG Fc fragments to saturate Fc receptors. Fluorochrome-conjugated mAbs (anti-CD14-PerCP-Cy5.5, anti-CD163-PE, anti-CD206-APC, anti-CD1a-FITC, BD Biosciences) were then incubated with each sample for 20 min at 4° C. FCM analysis was performed using a FACS LSR-II (BD biosciences) with the DIVA software. Data from 3 different blood donors are presented.
The surface expression of CD163 was analyzed by flow cytometry in day-6 macrophages derived from human monocytes cultured with GM-CSF and CSF-1. […] Culture with mAb H27K15 inhibited the differentiation of the CD163^+ macrophage population in all 3 donors tested. In the presence of 1 μg/ml H27K15, percentages of CD163-positive cells decreased from 2.5 to 4 folds compared with control cultures treated with rituximab.
Background: In flow cytometry, cells or beads pass a laser one at a time.

For the compound “Rituximab F(ab′)2: F(ab′)2 produced by pepsine digestion of rituximab, negative control”, the “Microscopical observation of day-6 cultures (cytotoxicity), compared with untreated cells” value in series [1] is “no obvious differences”.
In the case of `COc1ccc(COc2ccc(Cc3cnc(N)nc3N)cc2OC)cc1` [GW2580, reference compound], the “macrophage number remained at day 6 compared with untreated cultures” value in series [1] (1 μM) was “approximately 70%”. For the same compound, the “Microscopical observation of day-6 cultures (cytotoxicity)” value in series [1] (1 μM, all blood donors) was “relative cytotoxicity”. Also, in series [2], the “surface expression of CD64” value was “drastically reduced”. Moreover, the “Induction of CD86bright SSClow cell sub-population” value in series [3] was “had appeared”. In addition, the IL-12p70/IL-10 ratios entry in series [4] (H27K15 1 μg/ml, vs rituximab or no treatment) is listed as “increased”. In addition, in series [4], the IL-12p70 secretion entry is “not detectable”. Besides, in series [5], the IL-10 production entry is “inhibition”. In addition, the “production of the chemokine MCP-1/CCL2” value in series [6] was “almost totally suppressed”. Also, the MMP-9 production entry in series [7] is “dose-dependent decrease”. Further, in series [8], the “differentiation of the CD163+ macrophage population” value is listed as “same effect in only 2/3 donors”.
On to “Rituximab: human IgG1 isotype / negative control, obtained from Roche”, for which the “Microscopical observation of day-6 cultures (cytotoxicity), compared with untreated cells” value in series [1] is listed as “no obvious differences”. For the same compound, the IL-12p70 secretion result in series [4] is “did not produce any detectable IL-12p70”.
